Data on 14 compounds can be found in patent publication US20250163104A1, “MACROCYCLIC IMMUNOMODULATORS” (priority 2021, published 2025).

The structures appear in SMILES notation. Read-outs that look alike come from different tables or passages of the source. Where a SMILES comes first, the peptide text is derived from it. Bridges are numbered along the chain shown (N, C = ends). [ ]: non-standard residue; d: D form. The star is where a group is joined. ξ: configuration not given here. Ala(morpholin-4-yl) = N[C@@H](CN1CCOCC1)C(=O)O; Phe(4-COOH) = N[C@@H](Cc1ccc(C(=O)O)cc1)C(=O)O; Bip = N[C@@H](Cc1ccc(-c2ccccc2)cc1)C(=O)O; Orn(N3) = [N-]=[N+]=NCCC[C@H](N)C(=O)O; Phe(3-Me) = Cc1cccc(C[C@H](N)C(=O)O)c1; Val(3-OH) = CC(C)(O)[C@H](N)C(=O)O; 4Pal = N[C@@H](Cc1ccncc1)C(=O)O; Cha = N[C@@H](CC1CCCCC1)C(=O)O; Cit = NC(=O)NCCC[C@H](N)C(=O)O; Ile(3ξ) = CCC(C)[C@H](N)C(=O)O; Thr(3ξ) = CC(O)[C@H](N)C(=O)O; Carboxymethyl = O=C(O)C*; Nle = CCCC[C@H](N)C(=O)O; Orn = NCCC[C@H](N)C(=O)O; Pra = C#CC[C@H](N)C(=O)O; Dab = NCC[C@H](N)C(=O)O; Dap = NC[C@H](N)C(=O)O; Propargyl = C#CC*

In this assay the target is T1, human PD-1 / PD-L1-Ig binding on Jurkat cell line over-expressing human PD-1 (Jurkat-PD-1) (Homo sapiens, UniProt Q15116).
T1 construct: expressed in transfected cells; host or cells: Jurkat
Put plainly: Jurkat-PD-1 Cell Binding High-Content Screening Assay (CBA). Format: cell-based. The note with it: PE-labeled PD-L1-Ig 20 nM final. In outline:
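Jurkat cells over-expressing human PD-1, in DMEM/10% FCS, pre-incubated with compound 2 h at 37° C. PE-labeled human PD-L1-Ig (20 nM final) added for 1 h; cells fixed in paraformaldehyde with Hoechst 33342 nuclear stain, washed, and bound fluorescence quantified by high-content imaging.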

Where [1] appears, read: Jurkat-PD-1 cells, read-out: Jurkat HPD1_PDL1 IC50.

T1 sequence (Q15116 25-288): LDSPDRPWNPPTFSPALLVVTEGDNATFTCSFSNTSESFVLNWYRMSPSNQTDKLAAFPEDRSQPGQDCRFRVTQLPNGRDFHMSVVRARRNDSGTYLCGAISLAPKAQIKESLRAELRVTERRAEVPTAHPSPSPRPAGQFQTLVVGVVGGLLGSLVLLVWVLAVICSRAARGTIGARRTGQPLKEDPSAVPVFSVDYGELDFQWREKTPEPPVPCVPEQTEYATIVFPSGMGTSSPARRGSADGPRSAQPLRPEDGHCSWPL

The term IC50 denotes the concentration that gives 50% inhibition. Turning to `CCCC[C@@H]1NC(=O)[C@H](Cc2c[nH]c3ccccc23)NC(=O)[C@H](CC(=O)O)NC(=O)[C@H](Cc2ccc(OCC(=O)O)cc2)NC(=O)[C@H](CN)NC(=O)CSC[C@@H](C(=O)N[C@@H](C)C(N)=O)NC(=O)[C@H]([C@@H](C)O)NC(=O)[C@H](C(C)C)NC(=O)[C@H](CC2CCCCC2)NC(=O)[C@H](CCN)NC(=O)[C@@H](CC(C)C)NC(=O)[C@H](CCCN)NC(=O)[C@H](CCC(=O)O)NC(=O)[C@H](Cc2ccc(-c3ccccc3)cc2)NC1=O` [Compound 1718] ({CH2CO}-[Dap]Y(Carboxymethyl)DW[Nle][Bip]E[Orn][dL][Dab][Cha]VTCA-NH2; thioether N-14), under setting [1], the IC50 came to 24.2 nM.

On to `Cc1cccc(C[C@@H]2NC(=O)[C@H](CC(=O)O)NC(=O)[C@H](Cc3ccc(C(=O)O)cc3)NC(=O)[C@H](Cc3ccc(OCC(=O)O)cc3)NC(=O)CSC[C@@H](C(N)=O)NC(=O)[C@H]([C@@H](C)O)NC(=O)[C@H](C(C)C)NC(=O)[C@H](CC(C)C)NC(=O)[C@H](CCN)NC(=O)[C@@H](CC(C)C)NC(=O)[C@H](CCCN)NC(=O)[C@H](CCCNC(N)=O)NC(=O)[C@H](Cc3ccc(-c4ccccc4)cc3)NC(=O)[C@H](C(C)C)NC2=O)c1` [Compound 1557] ({CH2CO}-Y(Carboxymethyl)[Phe(4-COOH)]D[Phe(3-Me)]V[Bip][Cit][Orn][dL][Dab]LVTC-NH2; thioether N-14), for which the IC50 under setting [1] worked out at 37.9 nM. `CC(C)C[C@H]1NC(=O)[C@H](CCCN)NC(=O)[C@H](C(C)C)NC(=O)[C@H](Cc2ccc(-c3ccccc3)cc2)NC(=O)[C@H](C(C)C)NC(=O)[C@H](Cc2c[nH]c3ccccc23)NC(=O)[C@H](CC(=O)O)NC(=O)[C@H](Cc2ccc(OCC(=O)O)cc2)NC(=O)[C@H](CCCNC(=N)N)NC(=O)CSC[C@@H](C(=O)N[C@@H](C)C(N)=O)NC(=O)[C@H](C(C)O)NC(=O)[C@H](C(C)C)NC(=O)[C@H](CC2CCCCC2)NC(=O)[C@H](CCN)NC1=O` (stereo partly drawn) [Compound 2530] ({CH2CO}-RY(Carboxymethyl)DWV[Bip]V[Orn][dL][Dab][Cha]V[Thr(3ξ)]CA-NH2; thioether N-14): the IC50 under setting [1] was found to be 8.5 nM. As to `CC(C)C[C@@H]1NC(=O)[C@H](CCN)NC(=O)[C@@H](CC(C)C)NC(=O)[C@H](CCCN)NC(=O)[C@H](Cc2ccc(-c3ccccc3)cc2)NC(=O)[C@H](Cc2ccc(-c3ccccc3)cc2)NC(=O)[C@H](C(C)C)NC(=O)[C@H](Cc2c[nH]c3ccccc23)NC(=O)[C@H](CC(=O)O)NC(=O)[C@H](Cc2ccc(OCC(=O)O)cc2)NC(=O)[C@H](Cc2ccc(OCC(=O)O)cc2)NC(=O)CSC[C@@H](C(=O)N[C@@H](C)C(N)=O)NC(=O)[C@H]([C@@H](C)O)NC(=O)[C@H](C(C)C)NC1=O` [Compound 1246] ({CH2CO}-Y(Carboxymethyl)Y(Carboxymethyl)DWV[Bip][Bip][Orn][dL][Dab]LVTCA-NH2; thioether N-14), under setting [1], the IC50 was found to be 84.4 nM. As for `C#CCOc1ccc(C[C@@H]2NC(=O)[C@H](CN)NC(=O)CSC[C@@H](C(=O)N[C@@H](CCCN=[N+]=[N-])C(N)=O)NC(=O)[C@H]([C@@H](C)O)NC(=O)[C@H](C(C)C)NC(=O)[C@H](CC3CCCCC3)NC(=O)[C@H](CCN)NC(=O)[C@@H](CC(C)C)NC(=O)[C@H](CCCN)NC(=O)[C@H](CCC(=O)O)NC(=O)[C@H](Cc3ccc(-c4ccccc4)cc3)NC(=O)[C@H](C(C)C)NC(=O)[C@H](Cc3c[nH]c4ccccc34)NC(=O)[C@H](CC(=O)O)NC2=O)cc1` [Compound 1537] ({CH2CO}-[Dap]Y(Propargyl)DWV[Bip]E[Orn][dL][Dab][Cha]VTC[Orn(N3)]-NH2; thioether N-14), the IC50 under setting [1] is 101 nM. With `CC[C@H](C)[C@@H]1NC(=O)[C@H](Cc2ccc(-c3ccccc3)cc2)NC(=O)[C@H](C(C)C)NC(=O)[C@H](Cc2c[nH]c3ccccc23)NC(=O)[C@H](CC(=O)O)NC(=O)[C@H](Cc2ccc(O)cc2)NC(=O)[C@H](CC(N)=O)NC(=O)CSC[C@@H](C(=O)NCC(N)=O)NC(=O)[C@H]([C@@H](C)O)NC(=O)[C@H](C(C)C)NC(=O)[C@H](CC(C)C)NC(=O)[C@H](CCN)NC(=O)[C@@H](CC(C)C)NC(=O)[C@H](CCCN)NC1=O` [Compound 1124] ({CH2CO}-NYDWV[Bip]I[Orn][dL][Dab]LVTCG-NH2; thioether N-14), under setting [1], the IC50 came to 24.3 nM. For `Cc1cccc(C[C@@H]2NC(=O)[C@H](CC(=O)O)NC(=O)[C@H](Cc3ccncc3)NC(=O)[C@H](Cc3ccc(OCC(=O)O)cc3)NC(=O)CSC[C@@H](C(=O)N[C@@H](C)C(N)=O)NC(=O)[C@H]([C@@H](C)O)NC(=O)[C@H](C(C)C)NC(=O)[C@H](CC3CCCCC3)NC(=O)[C@H](CCN)NC(=O)[C@@H](CC(C)C)NC(=O)[C@H](CCCN)NC(=O)[C@H](CCCNC(N)=O)NC(=O)[C@H](Cc3ccc(-c4ccccc4)cc3)NC(=O)[C@H](C(C)C)NC2=O)c1` [Compound 1325] ({CH2CO}-Y(Carboxymethyl)[4Pal]D[Phe(3-Me)]V[Bip][Cit][Orn][dL][Dab][Cha]VTCA-NH2; thioether N-14), the IC50 under setting [1] amounted to 3.1 nM.

Take `C#CC[C@H](NC(=O)[C@H](CCN)NC(=O)[C@@H]1CSCC(=O)N[C@@H](CN)C(=O)N[C@@H](Cc2ccc(C(=O)O)cc2)C(=O)N[C@@H](CC(=O)O)C(=O)N[C@@H](Cc2cccc(C)c2)C(=O)N[C@@H](Cc2ccc(C(=O)O)cc2)C(=O)N[C@@H](Cc2ccc(-c3ccccc3)cc2)C(=O)N[C@@H](Cc2ccc(C(=O)O)cc2)C(=O)N[C@@H](CCCN)C(=O)N[C@H](CC(C)C)C(=O)N[C@@H](CCN)C(=O)N[C@@H](CC2CCCCC2)C(=O)N[C@@H](C(C)(C)O)C(=O)N[C@@H](Cc2cnc[nH]2)C(=O)N1)C(N)=O` [Compound 1862] ({CH2CO}-[Dap][Phe(4-COOH)]D[Phe(3-Me)][Phe(4-COOH)][Bip][Phe(4-COOH)][Orn][dL][Dab][Cha][Val(3-OH)]HC[Dab][Pra]-NH2; thioether N-14): the 50% inhibitory concentration (IC50) under setting [1] was determined as 7.4 nM. On the same count and under the same terms, the figure for `CCC(C)[C@@H]1NC(=O)[C@H](Cc2ccc(-c3ccccc3)cc2)NC(=O)[C@H](C(C)C)NC(=O)[C@H](Cc2cccc(C)c2)NC(=O)[C@H](CC(=O)O)NC(=O)[C@H](Cc2ccc(C(=O)O)cc2)NC(=O)[C@H](Cc2ccncc2)NC(=O)CSC[C@@H](C(=O)N[C@@H](CC(N)=O)C(N)=O)NC(=O)[C@H](CO)NC(=O)[C@H](C(C)C)NC(=O)[C@H](CC2CCCCC2)NC(=O)[C@H](CCN)NC(=O)[C@@H](CC(C)C)NC(=O)[C@H](CCCN)NC1=O` (stereo partly drawn) [Compound 2298] ({CH2CO}-[4Pal][Phe(4-COOH)]D[Phe(3-Me)]V[Bip][Ile(3ξ)][Orn][dL][Dab][Cha]VSCN-NH2; thioether N-14) is 15.5 nM.

Turning to `CC(C)C[C@@H]1NC(=O)[C@H](Cc2c[nH]c3ccccc23)NC(=O)[C@H](CC(=O)O)NC(=O)[C@H](Cc2ccc(O)cc2)NC(=O)[C@H](Cc2ccccc2)NC(=O)CSC[C@@H](C(=O)NCC(N)=O)NC(=O)[C@H](CO)NC(=O)[C@H](C(C)C)NC(=O)[C@H](CC2CCCCC2)NC(=O)[C@H](CC(N)=O)NC(=O)[C@@H](CC(C)C)NC(=O)[C@H](CN)NC(=O)[C@H](C(C)C)NC(=O)[C@H](Cc2ccc(-c3ccccc3)cc2)NC1=O` [Compound 1392] ({CH2CO}-FYDWL[Bip]V[Dap][dL]N[Cha]VSCG-NH2; thioether N-14), the IC50 under setting [1] came to 78.1 nM. For the compound `CC[C@H](C)[C@@H]1NC(=O)[C@H](Cc2ccc(-c3ccccc3)cc2)NC(=O)[C@H](C(C)C)NC(=O)[C@H](Cc2cccc(C)c2)NC(=O)[C@H](CC(=O)O)NC(=O)[C@H](Cc2ccc(OCC(=O)O)cc2)NC(=O)[C@H](Cc2cccnc2)NC(=O)CSC[C@@H](C(=O)N[C@@H](C)C(N)=O)NC(=O)[C@H]([C@@H](C)O)NC(=O)[C@H](C(C)C)NC(=O)[C@H](CC(C)C)NC(=O)[C@H](CCN)NC(=O)[C@@H](CC(C)C)NC(=O)[C@H](CCCN)NC1=O` [Compound 1224], the concentration for half-maximal inhibition (IC50) (Jurkat HPD1_PDL1 IC50, Jurkat-PD-1 cells) is 11.3 nM. As to `CC(C)[C@@H]1NC(=O)[C@H](Cc2c[nH]c3ccccc23)NC(=O)[C@H](CC(=O)O)NC(=O)[C@H](Cc2ccc(C(=O)O)cc2)NC(=O)[C@H](Cc2ccncc2)NC(=O)CSC[C@@H](C(=O)N[C@@H](C)C(N)=O)NC(=O)[C@H]([C@@H](C)O)NC(=O)[C@H](C(C)C)NC(=O)[C@H](CC2CCCCC2)NC(=O)[C@H](CCN)NC(=O)[C@@H](Cc2ccc(O)cc2)NC(=O)[C@H](CCCN)NC(=O)[C@H](CCC(=O)O)NC(=O)[C@H](Cc2ccc(-c3ccccc3)cc2)NC1=O` [Compound 1445] ({CH2CO}-[4Pal][Phe(4-COOH)]DWV[Bip]E[Orn][dY][Dab][Cha]VTCA-NH2; thioether N-14), the IC50 under setting [1] came out at 19.5 nM. Still for that read-out and setting: with `Cc1cccc(C[C@@H]2NC(=O)[C@H](CC(=O)O)NC(=O)[C@H](Cc3ccc(O)cc3)NC(=O)[C@H](CC(N)=O)NC(=O)CSC[C@@H](C(=O)N[C@@H](C)C(N)=O)NC(=O)[C@H]([C@@H](C)O)NC(=O)[C@H](C(C)C)NC(=O)[C@H](CC(C)C)NC(=O)[C@H](CCN)NC(=O)[C@@H](CC(C)C)NC(=O)[C@H](CCCN)NC(=O)[C@H](CCCNC(N)=O)NC(=O)[C@H](Cc3ccc(-c4ccccc4)cc3)NC(=O)[C@H](CC(C)C)NC2=O)c1` [Compound 1305] ({CH2CO}-NYD[Phe(3-Me)]L[Bip][Cit][Orn][dL][Dab]LVTCA-NH2; thioether N-14) the figure was 11.7 nM.

With `C#CC[C@H](NC(=O)[C@H](CCN)NC(=O)[C@@H]1CSCC(=O)N[C@@H](CN2CCOCC2)C(=O)N[C@@H](Cc2ccc(OCC(=O)O)cc2)C(=O)N[C@@H](CC(=O)O)C(=O)N[C@@H](Cc2cccc(C)c2)C(=O)N[C@@H](Cc2ccc(OCC(=O)O)cc2)C(=O)N[C@@H](Cc2ccc(-c3ccccc3)cc2)C(=O)N[C@@H](Cc2ccc(OCC(=O)O)cc2)C(=O)N[C@@H](CCCN)C(=O)N[C@H](CC(C)C)C(=O)N[C@@H](CCN)C(=O)N[C@@H](CC2CCCCC2)C(=O)N[C@@H](C(C)C)C(=O)N[C@@H](CCC(=O)O)C(=O)N1)C(=O)O` [Compound 1827] ({CH2CO}-[Ala(morpholin-4-yl)]Y(Carboxymethyl)D[Phe(3-Me)]Y(Carboxymethyl)[Bip]Y(Carboxymethyl)[Orn][dL][Dab][Cha]VEC[Dab][Pra]-OH; thioether N-14), the half-maximal inhibitory concentration (IC50) under setting [1] came to 9.4 nM.
